Measurements from article PMC10796807 (Computational and Structural Biotechnology Journal, 2023).
Where two headings read alike, the source gives them in different places.

How the values were obtained:
rat TRPV2 (rTRPV2-eGFP) = target: T1, rat TRPV2 (rTRPV2-eGFP) (Rattus norvegicus, UniProt Q9WUD2); format: biochemical; settings: for EC50: no inhibitor
T1 sequence (Q9WUD2 1-761): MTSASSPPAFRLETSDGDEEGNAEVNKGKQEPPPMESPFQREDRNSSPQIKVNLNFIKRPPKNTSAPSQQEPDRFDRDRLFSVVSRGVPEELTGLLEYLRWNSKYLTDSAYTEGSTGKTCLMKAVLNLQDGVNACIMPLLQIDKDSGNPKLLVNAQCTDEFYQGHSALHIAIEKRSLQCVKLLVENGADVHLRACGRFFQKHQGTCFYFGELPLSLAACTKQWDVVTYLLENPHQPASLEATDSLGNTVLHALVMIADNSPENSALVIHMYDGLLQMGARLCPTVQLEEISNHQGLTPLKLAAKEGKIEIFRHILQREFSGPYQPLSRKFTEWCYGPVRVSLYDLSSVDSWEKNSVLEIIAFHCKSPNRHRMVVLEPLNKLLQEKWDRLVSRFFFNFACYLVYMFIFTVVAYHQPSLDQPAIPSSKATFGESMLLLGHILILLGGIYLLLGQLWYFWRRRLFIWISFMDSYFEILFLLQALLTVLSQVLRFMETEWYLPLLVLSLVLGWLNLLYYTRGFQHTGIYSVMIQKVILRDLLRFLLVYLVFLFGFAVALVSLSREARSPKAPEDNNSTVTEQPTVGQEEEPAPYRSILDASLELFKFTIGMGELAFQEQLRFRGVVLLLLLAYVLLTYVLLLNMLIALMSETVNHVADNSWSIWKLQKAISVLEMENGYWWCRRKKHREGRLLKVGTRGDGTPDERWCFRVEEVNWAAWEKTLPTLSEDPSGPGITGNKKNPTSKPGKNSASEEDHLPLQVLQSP

human TRPV2 = settings: ref [40]; cited from earlier work
mouse or rat TRPV2 = settings: read-out: reported EC50 values; ref [40]; cited from earlier work
rat TRPV2 = settings: cells pretreated with 2.5 mM PBCD; ref [22]; cited from earlier work

lysophosphatidylcholine [LPC]
EC50 (rat TRPV2 (rTRPV2-eGFP); read-out: EC50 (Bayesian, 90% confidence interval in brackets), TRPV2-GFP vesicles): 36 µM

COc1cc(CNC(=O)CCCC/C=C/C(C)C)ccc1O [capsaicin]
Activation/modulation of TRPV2 (fluorescence signal) (rat TRPV2 (rTRPV2-eGFP); negative controls, TRPV2-GFP vesicles): no measurable increase of fluorescence signal

O=C(O)c1ccc(S(=O)(=O)N2CCCCC2)cc1 [Compound 6, 4-(Piperidine-1-sulfonyl)-benzoic acid]
Confidence that EC50 is lower than that of PBCD (Bayesian hypothesis test) (rat TRPV2 (rTRPV2-eGFP)): 84%

C=C(C)[C@@H]1CCC(C)=C[C@H]1c1c(O)cc(CCCCC)cc1O [CBD, cannabidiol]
activation (human TRPV2): no activation of human TRPV2
EC50 (rat TRPV2 (rTRPV2-eGFP); EC50 (Bayesian, 90% confidence interval in brackets), TRPV2-GFP vesicles): 110 µM
EC50 (mouse or rat TRPV2): 10 to 1000 nM
EC50 (rat TRPV2): 3.7 µM
